≈ marks a conversion by molar mass, not a printed value.
Experiments:
[1] = Dog bioavailability study; assay type: in vivo, beagle dogs; details: for Cmax / Tmax / Exposure AUC: target dose 10 mg/kg
Procedure: The dogs are not fasted before dosing, and have free access to water. Every day of the treatment, a half food ration is provided after the T0 blood sampling, 8 to 17 min before treatment, and the second half ration is given just after dosing or 1 h after treatment for period 2. A 3 days washout period is ensured between treatments.
The capsule composition is described in Table XX below.
The capsules are administered orally with water (5-10 mL), to provide good oesophageal transit. Each animal is checked at least once daily.
Blood is collected from the jugular vein into lithium heparinised tubes at TO (before food administration) and then at 1 h, 2 h, 4 h, 6 h, 8 h, 10 h, and 24 h post treatment.
Plasma is then obtained from blood by centrifugation (2500 g for 10 min at 4° C.), and stored at −20° C. until analysis.
After vortex mixing and centrifugation at 4° C., the supernatants are diluted with a 0.5 volume of HPLC grade water in a midi-eppendorf 96-well plate. The plate is sealed and shaken to ensure sample homogeneity prior to analysis.
Pharmacokinetic analysis is performed using WinNonlin™ software version 5.3, using concentrations from individual animals. Non-compartmental analysis is applied to determine the PK parameters (Cmax, Tmax, AUC0-last, t1/2, etc. . . . )
Concentrations below the limit of detection are set to zero for descriptive statistics and PK parameter calculations.

[2] = Solubility study in different solvents (UV-spectrometry); assay type: physicochemical; details: at least 24 h
Procedure: The supersaturated solution is then filtered and the concentration of product in the filtrate is determined using UV-spectrometry.
In water, the influence of the pH is adjusted to pH 2, pH 7, and pH 9. HCl and NaOH are used to adjust the pH.

[3] = Dissolution in solvents (salt Protocol 1); assay type: physicochemical; details: DCM, up to 20 relative volumes, agitated at 50° C.; not in the other nine solvents
Text: The solvent is selected from isopropanol, ethanol, methanol, isopropyl acetate, THF, TBME, acetone, methyl ethyl ketone, DCM, and MeCN.

GVS analysis = assay type: physicochemical
Text: The evolution of the material is followed via XPRD at various time points.

[4] = Thermodynamic aqueous solubility by HPLC; assay type: physicochemical; details: salt obtained by Protocol 4
[5] = Complementary salt analysis (XRPD, stability evaluation); assay type: physicochemical; details: salt obtained by Protocol 4
[6] = single oral administration, 1 × 100 mg capsule
[7] = single oral administration, 4 × 25 mg capsules
[8] = oral capsules, on average at the 2 capsule strengths

O=C(Nc1nc2cccc(-c3ccc(CN4CCS(=O)(=O)CC4)cc3)n2n1)C1CC1 [Compound 1, cyclopropanecarboxylic acid {5-[4-(1,1-dioxo-thiomorpholin-4-ylmethyl)-phenyl]-[1,2,4]triazolo[1,5-a]pyridin-2-yl}-amide]
Cmax [1, 6]: 797 ng/mL | Tmax [1, 6]: 8.0 h | Cmax [1, 7]: 894 ng/mL | Exposure AUC [1, 7]: 10400 ng·h/mL | Tmax [1, 7]: 6.0 h | Solubility ([2]; 0.005M HCl, 20° C.): 252 µg/mL (≈ 592 µM) | Solubility ([2]; HP-β-CD 40% pH3, 20° C.): 550 µg/mL (≈ 1290 µM) | dissolution in solvent [3]: almost full dissolution

Cl.O.O.O.O=C(Nc1nc2cccc(-c3ccc(CN4CCS(=O)(=O)CC4)cc3)n2n1)C1CC1 [Compound 1·HCl·3H2O]
in vivo exposure compared with Compound 1 [1, 8]: improved exposure | rate of absorption compared with Compound 1 [1, 8]: more rapidly absorbed | Cmax [1, 6]: 2630 ng/mL | Exposure AUC [1, 6]: 21700 ng·h/mL | Tmax [1, 6]: 2.0 h | Cmax [1, 7]: 3050 ng/mL | Exposure AUC [1, 7]: 33600 ng·h/mL | Tmax [1, 7]: 2.0 h | T1/2 ([1]; single oral administration, one range across both forms and both capsule strengths): Range 4.43-8.96 h | Solubility ([2]; 0.005M HCl, 20° C.): 3100 µg/mL | Solubility ([2]; 0.01M HCl + 2.0% Tween 80, 20° C.): 2790 µg/mL | Solubility ([2]; 0.01M HCl, 20° C.): 2340 µg/mL | Solubility ([2]; Acetone, 20° C.): 415 µg/mL | Solubility ([2]; Acetonitrile, 20° C.): 7360 µg/mL | Solubility ([2]; Acetonitrile/water (1/1), 20° C.): 25600 µg/mL | Solubility ([2]; Acetonitrile/water (4/1), 20° C.): 7810 µg/mL | Solubility ([2]; Dichloromethane, 20° C.): 388 µg/mL | Solubility ([2]; Ethanol, 20° C.): 764 µg/mL | Solubility ([2]; HP-β-CD 40% pH2, 20° C.): 7880 µg/mL | Solubility ([2]; HP-β-CD 40% pH3, 20° C.): 9330 µg/mL | Solubility ([2]; HP-β-CD 40% pH4, 20° C.): 2790 µg/mL | Solubility ([2]; Methanol, 20° C.): 743 µg/mL | Solubility ([2]; PEG400, 20° C.): 36600 µg/mL | Solubility ([2]; Propanol, 20° C.): 663 µg/mL | Solubility ([2]; Propylene glycol, 20° C.): 11700 µg/mL | Solubility ([2]; Tetrahydrofuran, 20° C.): 208 µg/mL | Solubility ([2]; Water (purified), 20° C.): 3170 µg/mL | Solubility ([2]; Water pH2, 20° C.): 8050 µg/mL | Solubility ([2]; Water pH7, 20° C.): 2260 µg/mL | Solubility ([2]; Water pH9, 20° C.): 2680 µg/mL | Solubility ([2]; Water/ethanol 1/1, 20° C.): 8680 µg/mL | Solubility ([2]; t-butyl methyl ether, 20° C.): 26.3 µg/mL | change in form at elevated RH (GVS analysis; GVS, followed by XRPD): No change in form | temperature of dehydration to Compound 1·HCl anhydrous (GVS analysis; upon heating): above 60 °C

Cl.O=C(Nc1nc2cccc(-c3ccc(CN4CCS(=O)(=O)CC4)cc3)n2n1)C1CC1 [HCl salt]
aqueous solubility [4]: 1900 µg/mL | hygroscopicity of the salt [5]: non-hygroscopic | stability of the salt ([5]; stability evaluation 1 week at 40° C./75% Relative humidity): stable

— US20250289816A1, “SALTS AND PHARMACUTICAL COMPOSITIONS THEREOF FOR THE TREATMENT OF INFLAMMATORY DISORDERS” (Alfasigma S.p.A., priority 2014, published 2025)
